ChEMBL document CHEMBL5365427, “Discovery and Structural Optimization of Covalent ZAP-70 Kinase Inhibitors against Psoriasis” (J Med Chem, 2023)
Calls of active or inactive are those of the source. The calls are words filed in the database; no cut-off is given here.

How the values were obtained:
[1] = GSH reactivity of compound at pH 7.4 PBS buffer assessed as half life incubated for 180 min by HPLC-MS analysis; type: physicochemical; conditions: glutathione (GSH) in PBS buffer
[2] = molecular target: T1, Tyrosine-protein kinase SYK (Homo sapiens, UniProt P43405); assay: Inhibition of SYK (unknown origin) using ULight-TK peptide as substrate at 1 uM incubated for 120 mins in presence of ATP by Lance Ultra Kinase assay relative to control
[3] = molecular target: T1, Tyrosine-protein kinase SYK; assay: Inhibition of SYK (unknown origin) using ULight-TK peptide as substrate incubated for 120 mins in presence of ATP by Lance Ultra Kinase assay
Splenocyte = assay: Immunosuppressive activity in BALB/c mouse Splenocyte assessed as inhibition of concanavalin A induced T-cell proliferation incubated for 48 hrs by [3H]-thymidine incorporation based beta scintillation counter analysis; type: functional
[4] = molecular target: T2, Tyrosine-protein kinase ZAP-70 (Homo sapiens, UniProt P43403); assay: Inhibition of ZAP-70 (unknown origin) using ULight-TK peptide as substrate incubated for 120 mins in presence of ATP by Lance Ultra Kinase assay
T2 sequence (P43403 whole entry): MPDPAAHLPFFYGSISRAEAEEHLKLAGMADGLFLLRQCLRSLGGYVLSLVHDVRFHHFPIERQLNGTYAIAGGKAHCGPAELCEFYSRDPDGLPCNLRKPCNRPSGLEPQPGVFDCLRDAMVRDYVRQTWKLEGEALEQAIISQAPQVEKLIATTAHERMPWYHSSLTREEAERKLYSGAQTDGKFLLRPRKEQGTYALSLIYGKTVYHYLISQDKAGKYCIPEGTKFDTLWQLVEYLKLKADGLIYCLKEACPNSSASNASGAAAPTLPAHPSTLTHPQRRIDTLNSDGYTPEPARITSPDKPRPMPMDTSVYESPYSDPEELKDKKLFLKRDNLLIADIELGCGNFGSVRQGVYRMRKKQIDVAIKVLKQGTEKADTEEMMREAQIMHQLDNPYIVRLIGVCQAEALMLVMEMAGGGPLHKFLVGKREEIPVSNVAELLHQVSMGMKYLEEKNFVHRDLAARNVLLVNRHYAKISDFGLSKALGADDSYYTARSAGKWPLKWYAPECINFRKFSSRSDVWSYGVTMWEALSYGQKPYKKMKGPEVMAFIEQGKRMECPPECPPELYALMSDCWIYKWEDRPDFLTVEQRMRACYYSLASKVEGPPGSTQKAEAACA

SMILES | half-life [1] | inhibition [2] | IC50 [3] | IC50 [4] | Activity (Splenocyte)
C=CC(=O)Nc1cc(CNc2nc(Nc3cc(OC)cc(OC)c3)c(C(N)=O)c3nccn23)ccn1 | 0.383 h | 7% |  |  | 
C=CC(=O)Nc1cc(CNc2nc(Nc3ccc(N4CCOCC4)c(OC(C)C)c3)c(C(N)=O)c3nccn23)ccc1Cl |  | 27.6% |  |  | 
C=CC(=O)Nc1cc(CNc2nc(Nc3ccc(N4CCN(C5COC5)CC4)c(OC)c3)c(C(N)=O)c3nccn23)ccc1Cl |  | 87.5% | 598 nM |  | Active
C=CC(=O)Nc1cc(CNc2nc(Nc3ccc(N4CCOCC4)c(OCC)c3)c(C(N)=O)c3nccn23)ccc1Cl |  | 82% | 641 nM |  | Active
C=CC(=O)Nc1cc(CNc2nc(Nc3cc(OC)cc(OC)c3)c(C(N)=O)c3nccn23)ccc1O |  | 9% |  |  | 
C=CC(=O)N1CCCc2c(CNc3nc(Nc4cc(OC)cc(OC)c4)c(C(N)=O)c4nccn34)cccc21 |  | 10.9% |  |  | 
C=CC(=O)Nc1cc(CNc2nc(Nc3ccc(N4CCOCC4)cc3)c(C(N)=O)c3nccn23)ccc1Cl |  | 61.4% | 5530 nM |  | 
C=CC(=O)Nc1cc(CNc2nc(Nc3ccc(N4CCCN(C)CC4)c(OC)c3)c(C(N)=O)c3nccn23)ccc1Cl |  | 71.2% | 1280 nM |  | Active
C=CC(=O)Nc1ccc2c(c1)CN(c1nc(Nc3cc(OC)cc(OC)c3)c(C(N)=O)c3nccn13)CC2 |  | 22.3% |  |  | 
C=CC(=O)Nc1cccc(CN(C)c2nc(Nc3cc(OC)cc(OC)c3)c(C(N)=O)c3nccn23)c1 |  | -5.9% |  |  | 
C=CC(=O)Nc1cc(CNc2nc(Nc3ccc(N4CCOCC4)c(NC(C)=O)c3)c(C(N)=O)c3nccn23)ccc1Cl |  | 18.8% |  |  | 
COc1cc(Nc2nc(NCc3cccc(NC(=O)CCl)c3)n3ccnc3c2C(N)=O)cc(OC)c1 |  | 20.7% | > 10000 nM | 44.8 nM | Active
C=CC(=O)Nc1cc(CNc2nc(Nc3cc(OC)cc(OC)c3)c(C(N)=O)c3nccn23)ccc1C |  | 15.1% |  |  | 
C=CC(=O)Nc1cc(CNc2nc(Nc3ccc(N4CCOCC4)cc3OC)c(C(N)=O)c3nccn23)ccc1Cl |  | 3.2% |  |  | 
C=CC(=O)Nc1cc(CNc2nc(Nc3cc(OC)cc(OC)c3)c(C(N)=O)c3nccn23)ccc1C(F)(F)F |  | 0.5% |  |  | 
C=CC(=O)Nc1cccc(C(C)Nc2nc(Nc3cc(OC)cc(OC)c3)c(C(N)=O)c3nccn23)c1 (stereo unspecified) |  | 10.1% |  |  | 
C=CC(=O)Nc1cc(CNc2nc(Nc3cc(OC)cc(N4CCOCC4)c3)c(C(N)=O)c3nccn23)ccc1Cl |  | 17.7% |  |  | 
C=CC(=O)Nc1cc(CNc2nc(Nc3ccc(N4CCC(O)CC4)c(OC)c3)c(C(N)=O)c3nccn23)ccc1Cl |  | 47.1% | 1290 nM |  | Active
C=CC(=O)Nc1cc(CNc2nc(Nc3ccc(N4CCN(C)CC4)c(OC)c3)c(C(N)=O)c3nccn23)ccc1Cl |  | 84% | 532 nM |  | Active
C=CC(=O)Nc1cc(CNc2nc(Nc3ccc(N4CCOCC4)c(CO)c3)c(C(N)=O)c3nccn23)ccc1Cl |  | 40.2% | 4280 nM |  | 

Further lines, with some results ahead:

half-life [1] | inhibition [2] | IC50 [3] | IC50 [4] | SMILES | Activity (Splenocyte)
 | 44.7% | 7000 nM |  | C=CC(=O)Nc1cccc(CNc2nc(Nc3cc(OC)cc(OC)c3)c(C(N)=O)c3nccn23)c1F | 
 | 6.8% |  |  | C=CC(=O)Nc1ccc(Cl)c(CNc2nc(Nc3cc(OC)cc(OC)c3)c(C(N)=O)c3nccn23)c1 | 
1.35 h | 17.5% | > 10000 nM |  | C=CC(=O)Nc1cc(CNc2nc(Nc3cc(OC)cc(OC)c3)c(C(N)=O)c3nccn23)ccc1Cl | 
4.23 h | 15.4% |  |  | C=CC(=O)Nc1cccc(CNc2nc(Nc3cc(OC)cc(OC)c3)c(C(N)=O)c3nccn23)c1 | 
1.07 h | 19.8% | > 10000 nM |  | C=CC(=O)Nc1cc(CNc2nc(Nc3cc(OC)cc(OC)c3)c(C(N)=O)c3nccn23)ccc1F | 
 | 13.2% |  |  | C=CC(=O)Nc1cccc(CNc2nc(Nc3cc(OC)cc(OC)c3)c(C(N)=O)c3nccn23)c1Cl | 
 | 0.8% |  |  | C=CC(=O)Nc1cc(F)cc(CNc2nc(Nc3cc(OC)cc(OC)c3)c(C(N)=O)c3nccn23)c1 | 
 | 6.2% |  |  | C=CC(=O)Nc1ccc(F)c(CNc2nc(Nc3cc(OC)cc(OC)c3)c(C(N)=O)c3nccn23)c1 | 
 | 8.2% |  |  | C=CC(=O)Nc1cc(Cl)cc(CNc2nc(Nc3cc(OC)cc(OC)c3)c(C(N)=O)c3nccn23)c1 | 
